Target: T1, PHD2 (Homo sapiens, UniProt Q9GZT9)
T1 construct: The catalytic domain of PHD2 (residues 181–426) was purified as described; made in house
Assay: Time course of PHD2-catalyzed peptide hydroxylation
Format: biochemical
Settings: 4 μM PHD2, 100 μM peptide, 50 μM Fe(II), 300 μM 2OG, 1 mM L-ascorbate, 50 mM HEPES pH 7.5, 37 °C, atmospheric O2; MALDI-TOF-MS; triplicate assays
Method: Enzymatic assays were conducted as described ([46], [47]). Unless otherwise stated, the assay mixture typically contained 5 μM FIH, 500 μM substrate, 500 μM 2OG, 1 mM L-ascorbate, and 50 μM Fe(NH4)2(SO4)2 or 4 μM PHD2, 100 μM substrate, 300 μM 2OG, 4 mM L-ascorbate, and 50 μM Fe(NH4)2(SO4)2. For HIF-1α CODD19-mer, the background levels of methionine oxidation resulting from assay conditions were subtracted based on non-enzymatic controls ([48]).
FIGURE 3. PHD2- and FIH-catalyzed hydroxylation of HIF-1/2α peptide substrates. A, time course of HIF-1/2α CODD19-mer peptide hydroxylation; B, time course of HIF-1/2α NODD19-mer peptide hydroxylation. Conditions were as follows: 4 μM PHD2, 100 μM peptide, 50 μM Fe(II), 300 μM 2OG, 1 mM L-ascorbate in HEPES 50 mM (pH 7.5) were incubated at 37 °C at atmospheric O2. C, time course of HIF-1α CAD 19- and 35-mer peptide hydroxylation. D, time course of HIF-2α CAD 19- and 35-mer peptide hydroxylation. Conditions were as follows: 5 μM FIH, 500 μM peptide, 50 μM Fe(II), 500 μM 2OG, 1 mM L-ascorbate in HEPES 50 mM (pH 7.5) were incubated at 37 °C at atmospheric O2. The different hydroxylation levels were analyzed by MALDI-TOF-MS. Error bars, S.D. of triplicate assays.

T1 sequence (Q9GZT9 181-426): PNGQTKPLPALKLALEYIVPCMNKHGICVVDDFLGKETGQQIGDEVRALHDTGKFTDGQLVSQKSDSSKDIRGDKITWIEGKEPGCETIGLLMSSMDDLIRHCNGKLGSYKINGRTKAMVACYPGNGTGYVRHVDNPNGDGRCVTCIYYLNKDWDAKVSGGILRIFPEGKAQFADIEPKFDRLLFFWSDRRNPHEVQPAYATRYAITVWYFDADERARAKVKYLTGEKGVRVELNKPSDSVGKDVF

Row | Sequence | substrate hydroxylation after 15 min [%]
1 | EELAQLAPTPGDAIISLDF [HIF-2α NODD, 19-mer fragment (398–416) of the HIF-2α N-terminal oxygen-dependent degradation domain, PHD2 substrate] | 20
2 | ELDLETLAPYIPMDGEDFQ [HIF-2α CODD, 19-mer fragment (523–541) of the HIF-2α C-terminal oxygen-dependent degradation domain, PHD2 substrate] | 90
